In the assay the test system is Plasmodium berghei. Put plainly: Luciferase/luciferin-expressing antifolate-resistant parasites were used to infect a culture of HepG2 cells that were pre-incubated with compounds. Infected hepatocytes emit light due to the luciferase reaction. Assay results are presented as the percent inhibition of light emission compared to control. […]. It counts as functional. To be noted: sporozoite; for IC90: read-out: LUCIFERASE INFECTION ASSAY - IC90.

[1] abbreviates: read-out: LUCIFERASE INFECTION ASSAY - IC50.

These results are taken from ChEMBL document CHEMBL4483862, “Open-source discovery of chemical leads for next-generation chemoprotective antimalarials” (2018).

As usually defined, the IC50 is the concentration at which inhibition is half-maximal. In general, IC90 refers to the concentration needed for an effect of 90%.

`CCOC(=O)C1=C(C)NC2=C(C(=O)C(c3c(F)cccc3Cl)CC2)C1c1ccc(Cl)cc1Cl` (configuration not stated): the IC90 is greater than 6.49 µM. Also, the concentration for half-maximal inhibition (IC50) (FFLUC_HILL_SLOPE 7.96, FFLUC_R_SQUARED 0.479, HEPG2TOX_HILL_SLOPE 1.9, HEPG2TOX_R_SQUARED 0.947, PBLUC_HILL_SLOPE 15.9, PBLUC_R_SQUARED 0.177, read-out: LUCIFERASE INFECTION ASSAY - IC50) amounted to 6.08 µM.
For the compound `Cc1ncc(CC(=O)n2cc(C(=O)c3cc(F)ccc3O)cn2)s1`, the IC90 is greater than 10 µM. The IC50 (PBLUC_HILL_SLOPE 0.716, PBLUC_R_SQUARED 0.277, read-out: LUCIFERASE INFECTION ASSAY - IC50) is greater than 10 µM.
Consider `O=C(Nc1cccc(C(F)(F)F)c1)Nc1ccccc1Sc1c(Cl)cncc1Cl`, for which the IC90 was greater than 7.2 µM. Moreover, where the note is “HEPG2TOX_HILL_SLOPE 7.44, HEPG2TOX_R_SQUARED 0.649, PBLUC_HILL_SLOPE 2.82, PBLUC_R_SQUARED 0.349, read-out: LUCIFERASE INFECTION ASSAY - IC50”, the IC50 amounted to 4.94 µM.
Turning to `Fc1ccc2c(c1)/C(=N\Nc1nc3ccccc3[nH]1)CCS2`, the IC90 is greater than 10 µM. Also, the concentration for half-maximal inhibition (IC50) (HEPG2TOX_HILL_SLOPE 6.62, HEPG2TOX_R_SQUARED 0.538, PBLUC_HILL_SLOPE 9.53, PBLUC_R_SQUARED 0.0234, read-out: LUCIFERASE INFECTION ASSAY - IC50) was 8.49 µM.
With `O=C(N/N=C/c1ccc([N+](=O)[O-])o1)c1ccc(CN2C(=O)c3cccc4cccc2c34)cc1`, the IC90 was greater than 10 µM. Also, the half-inhibitory concentration (IC50) under setting [1] is greater than 10 µM.
In the case of `COC(=O)Cc1[nH]n(-c2nc3ccccc3s2)c(=O)c1C(C)=NCCO`, the IC90 was found to be 3.67 µM. Further, the IC50 (FFLUC_HILL_SLOPE 1.26, FFLUC_R_SQUARED 0.909, HEPG2TOX_HILL_SLOPE 2.15, HEPG2TOX_R_SQUARED 0.817, PBLUC_HILL_SLOPE 1.27, PBLUC_R_SQUARED 0.77, read-out: LUCIFERASE INFECTION ASSAY - IC50) turned out to be 0.646 µM.
Regarding `CC(=O)c1c(C)[nH]c(C(=O)Nc2ccc(Oc3ccccc3Cl)cc2)c1C`, the IC90 came to 7.08 µM. Also, the IC50 (HEPG2TOX_HILL_SLOPE 17, HEPG2TOX_R_SQUARED 0.739, PBLUC_HILL_SLOPE 1.26, 0.690, PBLUC_R_SQUARED 0.562, 0.913, read-out: LUCIFERASE INFECTION ASSAY - IC50) was 0.831 µM.
Turning to `O=C(Nc1nc2cc3c(cc2s1)OCCO3)c1cccc2c[nH]nc12`, the IC90 amounted to 0.404 µM. Besides, where the note is “PBLUC_HILL_SLOPE 1.1, PBLUC_R_SQUARED 0.666, read-out: LUCIFERASE INFECTION ASSAY - IC50”, the IC50 came out at 0.0549 µM.
Turning to `CS(=O)(=O)c1ccc(CN2CCN3C(C(=O)Nc4cccc(C(F)(F)F)c4)=COC3=NC2=O)cc1`, the IC90 is greater than 10 µM. Further, under setting [1], the IC50 was greater than 10 µM.
`CCN(CC)c1ccc(/C=N/NC(=S)NC(C)C)c(O)c1`: the IC90 was greater than 10 µM. Moreover, the IC50 (PBLUC_HILL_SLOPE 3.12, PBLUC_R_SQUARED 0.566, read-out: LUCIFERASE INFECTION ASSAY - IC50) came out at 7.29 µM.
Consider `COc1ccc(-c2cnc3ccc(Cc4ccc(F)cc4)nn23)cc1OC`, for which the IC90 was determined as 6.11 µM. In addition, the IC50 (HEPG2TOX_HILL_SLOPE 7.18, HEPG2TOX_R_SQUARED 0.189, PBLUC_HILL_SLOPE 3.8, PBLUC_R_SQUARED 0.0747, read-out: LUCIFERASE INFECTION ASSAY - IC50) was found to be 3.43 µM.
With `O=C(CNC(=O)c1ccc(N2CCCC2=O)cc1)NCCCn1cccn1`, the IC90 was greater than 10 µM. Moreover, the 50% inhibitory concentration (IC50) under setting [1] was greater than 10 µM.
Consider `CCCn1c(N)c(C(=O)CSc2nc3sc(C)c(C)c3c(=O)n2-c2ccccc2)c(=O)[nH]c1=O`, for which the IC90 was greater than 10 µM. The IC50 under setting [1] was greater than 10 µM.
For the compound `Cc1cccc(C(=O)Nc2nc3ccccn3c2C(=O)NC2CCCCC2)c1`, the IC90 stood at 2.91 µM. The concentration for half-maximal inhibition (IC50) (HEPG2TOX_HILL_SLOPE 2.01, HEPG2TOX_R_SQUARED 0.621, PBLUC_HILL_SLOPE 5.25, PBLUC_R_SQUARED 0.58, read-out: LUCIFERASE INFECTION ASSAY - IC50) came to 1.91 µM.
With `COc1cc(-c2cnc3cnc(-c4ccc(NCCN5CCOCC5)nc4)cn23)ccc1O`, the 90% effect concentration (IC90) is greater than 7.39 µM. Further, the IC50 (HEPG2TOX_HILL_SLOPE 1.25, HEPG2TOX_R_SQUARED 0.41, PBLUC_HILL_SLOPE 2.45, PBLUC_R_SQUARED 0.19, read-out: LUCIFERASE INFECTION ASSAY - IC50) was found to be 6.15 µM.
Regarding `CC(C(=O)Nc1cccc(C#N)c1)N1CCN(c2ncccn2)CC1` (configuration not stated), the IC90 was greater than 10 µM. Further, under setting [1], the IC50 is greater than 10 µM.
For the compound `CCN(CC)S(=O)(=O)c1ccc(Cl)c(NC(=O)COC(=O)c2c3c(nc4ccccc24)CCC(C)C3)c1` (configuration not stated), the IC90 stood at 4.21 µM. Moreover, the IC50 (HEPG2TOX_HILL_SLOPE 20.1, HEPG2TOX_R_SQUARED 0.334, PBLUC_HILL_SLOPE 11.1, PBLUC_R_SQUARED 0.597, read-out: LUCIFERASE INFECTION ASSAY - IC50) was 3.46 µM.
Turning to `O=C(Nc1ccccc1Oc1ccccc1Cl)c1cc2ccccc2c(=O)[nH]1`, the IC90 is 1.25 µM. For the same compound, the concentration for half-maximal inhibition (IC50) (HEPG2TOX_HILL_SLOPE 0.764, HEPG2TOX_R_SQUARED 0.704, PBLUC_HILL_SLOPE 15.6, PBLUC_R_SQUARED 0.531, read-out: LUCIFERASE INFECTION ASSAY - IC50) was determined as 1.09 µM.
For `CN(C)c1cccc(-c2cnc3cnc(-c4ccc(C(=O)NCCO)cc4)cn23)c1`, the IC90 was greater than 8.22 µM. Also, the IC50 under setting [1] was greater than 8.22 µM.
Take `Cc1ccc(-n2c(SCc3nc4ccccc4c(=O)o3)nnc2-c2ccccc2)cc1C`: the IC90 is greater than 10 µM. The half-inhibitory concentration (IC50) under setting [1] is greater than 10 µM.
Turning to `CCOc1ccc(-n2c(C)cc(/C=C(\C#N)c3ccccn3)c2C)cc1`, the IC90 is greater than 10 µM. In addition, the IC50 (PBLUC_HILL_SLOPE 2.96, PBLUC_R_SQUARED 0.363, read-out: LUCIFERASE INFECTION ASSAY - IC50) turned out to be 8.53 µM.
Regarding `CCCOc1ccc(S(=O)(=O)NC2CCCCC2)c2ccccc12`, the IC90 was determined as 8.57 µM. Moreover, under “HEPG2TOX_HILL_SLOPE 9.17, HEPG2TOX_R_SQUARED 0.712, PBLUC_HILL_SLOPE 2.91, PBLUC_R_SQUARED 0.385, read-out: LUCIFERASE INFECTION ASSAY - IC50”, the IC50 came to 4.03 µM.
For the compound `CCc1ccccc1-n1c(SCCn2c(=O)oc3ccccc32)nc2ccccc2c1=O`, the 90% effect concentration (IC90) was greater than 10 µM. Also, the IC50 under setting [1] is greater than 10 µM.
As to `C=CCc1ccccc1OCCn1c(C2CC(=O)N(Cc3ccc(F)cc3)C2)nc2ccccc21` (configuration not stated), the IC90 is greater than 10 µM. Also, the IC50 (FFLUC_HILL_SLOPE 11.3, FFLUC_R_SQUARED 0.11, read-out: LUCIFERASE INFECTION ASSAY - IC50) was greater than 10 µM.
For `CC(C)CN1CCOC(CSc2nc3sc4c(c3c(=O)n2C)CCC4)C1` (configuration not stated), the IC90 was greater than 10 µM. Besides, the IC50 under setting [1] was greater than 10 µM.
Regarding `O=C(CCCC(=O)Nc1cc(C(F)(F)F)cc(C(F)(F)F)c1)Nc1cc(C(F)(F)F)cc(C(F)(F)F)c1`, the IC90 was greater than 5.95 µM. Moreover, the IC50 under setting [1] was determined as 1.07 µM.
As to `CN(CC(=O)Nc1ccc(OC(F)(F)F)cc1)Cc1cc([N+](=O)[O-])ccc1O`, the 90% effect concentration (IC90) came out at 3.33 µM. Further, the IC50 (HEPG2TOX_HILL_SLOPE 2.38, HEPG2TOX_R_SQUARED 0.828, PBLUC_HILL_SLOPE 9.41, PBLUC_R_SQUARED 0.824, read-out: LUCIFERASE INFECTION ASSAY - IC50) came out at 2.64 µM.
Turning to `N#Cc1c(Cl)cccc1Oc1ccc(S(=O)(=O)Oc2c(Cl)cccc2Cl)cc1`, the IC90 was greater than 7.26 µM. Where the note is “PBLUC_HILL_SLOPE 2.67, PBLUC_R_SQUARED 0.0667, read-out: LUCIFERASE INFECTION ASSAY - IC50”, the IC50 was 6.81 µM.
With `O=C(Nc1nc2ccccn2c1C(=O)NC1CCCC1)c1ccc(F)cc1`, the IC90 was greater than 9.01 µM. Also, the IC50 under setting [1] is greater than 9.01 µM.
As for `CC(O)c1ccc(-c2ccccc2NC(=O)c2ccccn2)s1` (configuration not stated), the IC90 was greater than 10 µM. Moreover, the IC50 (HEPG2TOX_HILL_SLOPE 8.65, HEPG2TOX_R_SQUARED 0.867, read-out: LUCIFERASE INFECTION ASSAY - IC50) was greater than 10 µM.
Consider `COc1cc(-c2cnc3cnc(-c4cccc(NS(C)(=O)=O)c4)cn23)cc(OC)c1OC`, for which the IC90 amounted to 6.6 µM. In addition, the IC50 (HEPG2TOX_HILL_SLOPE 7.03, HEPG2TOX_R_SQUARED 0.532, PBLUC_HILL_SLOPE 3.63, PBLUC_R_SQUARED 0.378, read-out: LUCIFERASE INFECTION ASSAY - IC50) was 3.61 µM.
Consider `Cc1cnc(NC(=O)c2ccc3nccnc3c2)s1`, for which the IC90 was greater than 10 µM. Further, the IC50 (HEPG2TOX_HILL_SLOPE 19.6, HEPG2TOX_R_SQUARED 0.459, read-out: LUCIFERASE INFECTION ASSAY - IC50) was greater than 10 µM.
`CCCOc1cccc(NC(=O)c2cc(CC(C)C)oc2C)c1`: the IC90 stood at 10.1 µM. Further, for the setting “PBLUC_HILL_SLOPE 5.71, PBLUC_R_SQUARED 0.294, read-out: LUCIFERASE INFECTION ASSAY - IC50”, the half-maximal inhibitory concentration (IC50) came to 6.86 µM.
Regarding `CN(C(=O)Cn1nnc(-c2cccc(C(F)(F)F)c2)n1)C1(C#N)CCCCC1`, the IC90 is greater than 10 µM. In addition, under setting [1], the IC50 is greater than 10 µM.
Regarding `Cc1ccc(CSc2ccc([N+](=O)[O-])c3nonc23)cc1`, the IC90 was greater than 11 µM. The concentration for half-maximal inhibition (IC50) (HEPG2TOX_HILL_SLOPE 7.3, HEPG2TOX_R_SQUARED 0.39, read-out: LUCIFERASE INFECTION ASSAY - IC50) was greater than 11 µM.
`C=CCN(C(=O)c1cccc(S(=O)(=O)N2CCCC2)c1)c1nc2c(s1)CCCC2`: the concentration for an effect of 90% (IC90) came to 8.77 µM. For the same compound, the IC50 (HEPG2TOX_HILL_SLOPE 2.26, HEPG2TOX_R_SQUARED 0.795, PBLUC_HILL_SLOPE 11.6, 3.98, PBLUC_R_SQUARED 0.244, 0.586, read-out: LUCIFERASE INFECTION ASSAY - IC50) amounted to 7.23 µM.
